The source of these data is publication PMC6917776, “Discovery of a chemical probe for PRDM9” (Nature Communications, 2019).

Common to all, as to assay: Methyltransferase selectivity assay (SPA)
Common to all, as to assay type: biochemical

One experiment has as its target T1, PRMT5/ MEP50 complex (Homo sapiens, UniProt O14744).
T1 construct: purchased Structural Genomics Consortium (SGC Toronto) in-house methyltransferase panel

The next experiment deals with T2, PRMT9 (Homo sapiens, UniProt Q6P2P2).
T2 construct: purchased Structural Genomics Consortium (SGC Toronto) in-house methyltransferase panel
T2 sequence (Q6P2P2 1-845): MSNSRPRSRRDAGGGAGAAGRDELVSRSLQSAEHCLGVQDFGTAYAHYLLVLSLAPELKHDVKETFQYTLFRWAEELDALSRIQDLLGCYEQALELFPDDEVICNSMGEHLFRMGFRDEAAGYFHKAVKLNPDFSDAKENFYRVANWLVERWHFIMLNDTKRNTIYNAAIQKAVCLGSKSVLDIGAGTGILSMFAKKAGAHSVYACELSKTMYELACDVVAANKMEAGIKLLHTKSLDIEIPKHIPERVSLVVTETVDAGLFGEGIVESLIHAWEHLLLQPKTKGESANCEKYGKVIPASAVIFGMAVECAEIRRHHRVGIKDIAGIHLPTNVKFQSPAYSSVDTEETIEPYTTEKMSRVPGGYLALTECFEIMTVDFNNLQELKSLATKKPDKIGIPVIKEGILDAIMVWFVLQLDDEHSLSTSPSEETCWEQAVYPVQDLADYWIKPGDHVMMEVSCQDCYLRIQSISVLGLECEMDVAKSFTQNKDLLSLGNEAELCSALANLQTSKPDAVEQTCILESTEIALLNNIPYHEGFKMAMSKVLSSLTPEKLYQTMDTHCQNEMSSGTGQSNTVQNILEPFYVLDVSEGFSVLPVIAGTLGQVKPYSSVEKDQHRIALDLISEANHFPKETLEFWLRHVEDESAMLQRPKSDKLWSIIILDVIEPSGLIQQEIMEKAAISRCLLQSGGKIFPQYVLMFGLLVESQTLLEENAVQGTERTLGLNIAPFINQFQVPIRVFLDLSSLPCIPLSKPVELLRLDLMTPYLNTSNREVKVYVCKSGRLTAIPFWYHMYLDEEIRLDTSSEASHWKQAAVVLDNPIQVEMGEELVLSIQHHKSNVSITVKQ

Another experiment deals with T3, SMYD2 (Homo sapiens, UniProt Q9NRG4).
T3 construct: purchased Structural Genomics Consortium (SGC Toronto) in-house methyltransferase panel
T3 sequence (Q9NRG4 whole entry): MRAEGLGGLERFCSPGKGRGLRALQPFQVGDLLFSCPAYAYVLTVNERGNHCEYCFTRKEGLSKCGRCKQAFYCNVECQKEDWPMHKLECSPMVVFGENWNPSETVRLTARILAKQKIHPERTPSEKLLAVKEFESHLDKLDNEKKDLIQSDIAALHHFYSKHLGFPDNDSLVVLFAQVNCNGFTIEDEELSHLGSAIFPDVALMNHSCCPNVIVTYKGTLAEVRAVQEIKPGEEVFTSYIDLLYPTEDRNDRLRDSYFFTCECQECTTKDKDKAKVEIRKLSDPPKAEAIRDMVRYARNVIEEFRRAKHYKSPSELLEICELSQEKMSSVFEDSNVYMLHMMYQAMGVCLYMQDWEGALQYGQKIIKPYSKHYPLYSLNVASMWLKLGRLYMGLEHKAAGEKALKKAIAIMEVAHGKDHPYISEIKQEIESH

For a further experiment, the target named is T4, SMYD3 (Homo sapiens, UniProt Q9H7B4).
T4 construct: purchased Structural Genomics Consortium (SGC Toronto) in-house methyltransferase panel
T4 sequence (Q9H7B4 1-428): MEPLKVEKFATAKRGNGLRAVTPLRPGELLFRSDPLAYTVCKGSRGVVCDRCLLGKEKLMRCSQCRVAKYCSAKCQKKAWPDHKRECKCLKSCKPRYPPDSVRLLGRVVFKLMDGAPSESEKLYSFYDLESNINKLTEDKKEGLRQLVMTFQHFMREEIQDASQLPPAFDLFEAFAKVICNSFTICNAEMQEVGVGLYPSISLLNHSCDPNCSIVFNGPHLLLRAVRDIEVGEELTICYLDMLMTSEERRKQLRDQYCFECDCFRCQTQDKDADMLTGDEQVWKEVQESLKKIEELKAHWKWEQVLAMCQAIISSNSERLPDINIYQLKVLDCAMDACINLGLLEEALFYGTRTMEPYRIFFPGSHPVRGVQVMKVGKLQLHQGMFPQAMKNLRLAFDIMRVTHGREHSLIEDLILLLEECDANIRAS

For a further experiment, the target named is T5, PRMT4 (Homo sapiens, UniProt Q86X55).
T5 construct: purchased Structural Genomics Consortium (SGC Toronto) in-house methyltransferase panel
T5 sequence (Q86X55 1-608): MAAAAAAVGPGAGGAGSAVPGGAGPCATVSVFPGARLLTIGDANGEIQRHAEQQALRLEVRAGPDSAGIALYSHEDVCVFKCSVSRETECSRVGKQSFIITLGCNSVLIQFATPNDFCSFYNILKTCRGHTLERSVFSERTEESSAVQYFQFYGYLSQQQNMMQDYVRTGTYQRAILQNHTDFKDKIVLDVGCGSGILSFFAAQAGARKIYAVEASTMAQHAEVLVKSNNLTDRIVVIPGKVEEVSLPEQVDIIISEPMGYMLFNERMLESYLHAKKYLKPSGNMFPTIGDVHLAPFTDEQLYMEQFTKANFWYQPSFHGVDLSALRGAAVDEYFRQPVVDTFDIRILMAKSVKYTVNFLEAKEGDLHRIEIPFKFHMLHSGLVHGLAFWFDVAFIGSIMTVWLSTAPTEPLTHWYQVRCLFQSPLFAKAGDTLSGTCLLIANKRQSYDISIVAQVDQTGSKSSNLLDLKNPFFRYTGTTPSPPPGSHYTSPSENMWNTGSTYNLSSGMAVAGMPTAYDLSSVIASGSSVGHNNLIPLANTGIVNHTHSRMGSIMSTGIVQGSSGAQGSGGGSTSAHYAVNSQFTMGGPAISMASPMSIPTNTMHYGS

[1] abbreviates: 10µM compound, Exp1, Exp2, 10 µM.
[2] abbreviates: 1µM compound, Exp1, Exp2, read-out: Activity %.
The mark [3] stands for this setting: 10µM compound, Exp1, Exp2, read-out: Activity %.

“And” between values parts separate entries of the source, which are not always exact repeats. Equal values may be shown once. Read-outs that look alike come from different tables or passages of the source.

T1 sequence (O14744 whole entry): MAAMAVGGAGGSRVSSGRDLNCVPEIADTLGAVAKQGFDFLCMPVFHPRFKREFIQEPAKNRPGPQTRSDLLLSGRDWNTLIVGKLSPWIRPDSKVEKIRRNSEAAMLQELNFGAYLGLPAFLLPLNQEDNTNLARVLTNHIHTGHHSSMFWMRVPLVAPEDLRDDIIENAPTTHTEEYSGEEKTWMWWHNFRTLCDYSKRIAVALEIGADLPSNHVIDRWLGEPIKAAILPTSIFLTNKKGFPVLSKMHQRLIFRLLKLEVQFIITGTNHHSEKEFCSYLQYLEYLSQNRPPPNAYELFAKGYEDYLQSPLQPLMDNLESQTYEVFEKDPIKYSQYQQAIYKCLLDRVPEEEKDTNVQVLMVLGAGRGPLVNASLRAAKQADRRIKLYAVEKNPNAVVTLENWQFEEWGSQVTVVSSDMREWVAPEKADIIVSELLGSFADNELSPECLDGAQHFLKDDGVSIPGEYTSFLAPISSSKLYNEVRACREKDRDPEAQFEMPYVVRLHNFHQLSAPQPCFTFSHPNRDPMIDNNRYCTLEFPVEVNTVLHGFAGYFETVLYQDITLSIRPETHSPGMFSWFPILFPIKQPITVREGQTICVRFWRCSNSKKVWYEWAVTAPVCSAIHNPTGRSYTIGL
T1 sequence (Q9BQA1 whole entry partner): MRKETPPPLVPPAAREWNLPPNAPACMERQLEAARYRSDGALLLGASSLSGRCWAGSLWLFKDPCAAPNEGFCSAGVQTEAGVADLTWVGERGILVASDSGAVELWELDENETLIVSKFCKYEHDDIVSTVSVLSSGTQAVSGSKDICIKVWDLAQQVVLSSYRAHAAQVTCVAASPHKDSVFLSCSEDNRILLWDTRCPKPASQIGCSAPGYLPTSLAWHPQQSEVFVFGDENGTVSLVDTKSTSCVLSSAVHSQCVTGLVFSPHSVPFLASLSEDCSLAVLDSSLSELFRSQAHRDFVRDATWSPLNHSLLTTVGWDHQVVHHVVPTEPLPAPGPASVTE

In the case of `COc1cc(OC)cc(-c2noc(N3CCN(C)C4(CCN(c5ccccc5)CC4)C3)n2)c1` [MRK-740 -NC], the activity at 1 µM was found to be 108% on PRMT5/ MEP50 complex (1µM compound, Exp1, Exp2); 102% on PRMT9 (1µM compound, Exp1, Exp2); 102% at SMYD2 (1µM compound, Exp1, Exp2); 100% on SMYD3 (1µM compound, Exp1, Exp2); 108% at PRMT4 (1µM compound, Exp1, Exp2). Besides, the Activity % on PRMT5/ MEP50 complex (1µM compound, Exp1, Exp2, 1 µM) stood at 99%; on PRMT5/ MEP50 complex (setting [1]), 102%; at PRMT9 (1µM compound, Exp1, Exp2, 1 µM), 106%; at SMYD2 (1µM compound, Exp1, Exp2, 1 µM) it was 100%; at SMYD2 (setting [1]), 99%; at SMYD3 (1µM compound, Exp1, Exp2, 1 µM), 102%. Besides, the Activity % on SMYD3 (setting [1]) is given as 89%; at PRMT4 (1µM compound, Exp1, Exp2, 1 µM), 89%; at PRMT4 (setting [1]) it was 89%. Besides, the activity at 10 µM on PRMT5/ MEP50 complex (10µM compound, Exp1, Exp2) was 95%; on PRMT9 (10µM compound, Exp1, Exp2), 98%; at SMYD2 (10µM compound, Exp1, Exp2), 101%; at SMYD3 (10µM compound, Exp1, Exp2), 96%; at PRMT4 (10µM compound, Exp1, Exp2), 87%.
Turning to `COc1cc(OC)cc(-c2noc(N3CCN(C)C4(CCN(c5ccnc(C)c5)CC4)C3)n2)c1` [MRK-740], the activity at 1 µM on PRMT5/ MEP50 complex (setting [2]) came to 90%; at PRMT9 (setting [2]), 100%; on SMYD2 (setting [2]) it was 86%; on SMYD3 (setting [2]), 95%; on PRMT4 (setting [2]) it was 101%. Besides, the activity at 10 µM worked out at 94% at PRMT5/ MEP50 complex (setting [3]), 91% at SMYD2 (setting [3]), 96% at SMYD3 (setting [3]) and 96% at PRMT4 (setting [3]). Moreover, the Activity % on PRMT9 (setting [1]) was 89% and 114%; on SMYD2 (1µM compound, Exp1, Exp2, 1 µM) it was 89%; at SMYD2 (setting [1]), 92%; at SMYD3 (1µM compound, Exp1, Exp2, 1 µM), 91%; at SMYD3 (setting [1]), 101%; on PRMT4 (1µM compound, Exp1, Exp2, 1 µM) it was 98%. The Activity % on PRMT4 (setting [1]) came to 99%.
